Structures can show the parent of a compound that is named as a salt. Where two headings read alike, the source gives them in different places. Blank lines part the entries; values can stand above or below the compound they belong to.
System: amyloid β production in transfected H4 (human neuroglioma) cells stably expressing APP constructs
Assay: In vitro cell-based assay of inhibitors of amyloid β production (ELISA)
Details: amyloid β in medium by ELISA
Method in brief: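 Aβ secreted into the medium was read by sandwich ELISA (monoclonal capture for the Aβ C-terminus, polyclonal detection for the N-terminus) and calibrated on a standard curve. Before this, APP-expressing H4 cells were exposed to compound for ~16 h at an initial 10-100 μM, with actives then retested in dose-response.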

[1] = transfected H4 cells stably expressing APP, approximately 16 hours incubation, read-out: ACTIVITY (IC50, inhibition of amyloid β production)
[2] = Homo sapiens, 16 h, transfected H4 cells stably expressing APP constructs, approximately 16 hours incubation, read-out: ACTIVITY (IC50, inhibition of amyloid β production)
[3] = Homo sapiens, 16 h, transfected H4 cells stably expressing APP, approximately 16 hours incubation, read-out: ACTIVITY (IC50, inhibition of amyloid β production)
[4] = transfected H4 cells stably expressing APP, approx. 16 h incubation, read-out: ACTIVITY (IC50, inhibition of amyloid β production)
[5] = transfected H4 cells stably expressing APP, approximately 16 hours incubation, Table B, read-out: ACTIVITY (IC50, inhibition of amyloid β production)
[6] = Homo sapiens, 16 h, transfected H4 cells expressing APP, approximately 16 hours incubation, read-out: ACTIVITY (IC50, inhibition of amyloid β production)
[7] = Homo sapiens, 16 h, transfected H4 cells stably expressing APP, approximately 16 hours incubation, Table B, read-out: ACTIVITY (IC50, inhibition of amyloid β production)
[8] = transfected H4 cells stably expressing APP constructs, approximately 16 hours incubation, read-out: ACTIVITY (IC50, inhibition of amyloid β production)

IC50 [1]: > 0.5 µM
Compound: O=C(OC[C@H](c1ccccc1)N(c1cc(F)ccc1F)S(=O)(=O)c1ccc(Cl)cc1)c1ccncc1 [Example 904, (2S)-2-{[(4-chlorophenyl)sulfonyl]-2,5-difluoroanilino}-2-henylethyl isonicotinate]

IC50 [2]: ≤ 0.025 µM
Compound: CNS(=O)(=O)CCC[C@@H](C)N(c1cc(Cl)ccc1F)S(=O)(=O)c1ccc(Cl)cc1 [Example 1203, 4-chloro-N-(5-chloro-2-fluorophenyl)-N-[4-[(methylamino)sulfonyl]-1(R)-methylbutyl]benzenesulfonamide]

IC50 [3]: 0.1 to 0.5 µM
Compound: O=S(=O)(c1ccc(Cl)cc1)N(Cc1ccccc1OCCCSC1CCCCC1)c1cc(F)ccc1F [Example 869, 4-chloro-N-{2-[3-(cyclohexylsulfanyl)propoxy]benzyl}-N-(2,5-difluorophenyl)benzenesulfonamide]

IC50 [3]: > 0.5 µM
Compound: C[C@H](c1ccc(F)cc1CCCO)N(c1cc(F)ccc1F)S(=O)(=O)c1ccc(Cl)cc1 [Example 1063, 4-chloro-N-(2,5-difluorophenyl)-N-((1R)-1-[4-fluoro-2-(3-hydroxypropyl)phenyl]ethyl}benzenesulfonamide]

Compound: O=S(=O)(Cc1ccccc1)N(Cc1ccccc1OCCCN1CCCCC1)c1cc(Cl)ccc1Cl [Example 992, N-(2,5-dichlorophenyl)(phenyl)-N-{2-[3-(1-piperidinyl)propoxy]benzyl}methanesulfonamide hydrochloride]
IC50 [3]: > 0.5 µM

IC50 [3]: > 0.5 µM
Compound: COc1ccc(SCCCOc2ccccc2CN(c2cc(F)ccc2F)S(=O)(=O)c2ccc(Cl)cc2)cc1 [Example 1029, 4-chloro-N-(2,5-difluorophenyl)-N-(2-{3-[(4-methoxyphenyl)sulfanyl]propoxy}benzyl)benzenesulfonamide]

IC50 [1]: > 0.5 µM
Compound: N-{3-[2-({[(4-chlorophenyl)sulfonyl]-2,5-difluoroanilino}methyl)phenoxy]propyl}-3,5-difluoro-N-methylbenzamide [Example 1000]

IC50 [2]: 0.1 to 0.5 µM
Compound: C[C@H](CCCNC(=O)c1ccccc1)N(c1cc(Cl)ccc1Cl)S(=O)(=O)c1ccc(Cl)cc1 [Example 1149, 4-chloro-N-(2,5-dichlorophenyl)-N-[4-[[(phenyl)carbonyl]amino]-1-methylbutyl]benzenesulfonamide]

IC50 [4]: 0.1 to 0.5 µM
Compound: N-{2-[2-(1-{[(4-chlorophenyl)sulfonyl]-2,5-difluoroanilino}ethyl)phenoxy]ethyl}-N-ethylbutanamide [Example 646]

Compound: O=S(=O)(c1ccc(Cl)cc1)N(Cc1ccccc1OCCCN1CCC(O)CC1)c1ccccc1 [Example 298, 4-Chloro-N-{2-[3-(4-hydroxy-1-piperidinyl)propoxy]benzyl}-N-phenylbenzenesulfonamide Hydrochloride]
IC50 [5]: 0.05 to 0.1 µM

Compound: CN(CCCOc1ccccc1CN(c1cc(F)ccc1F)S(=O)(=O)c1ccc(Cl)cc1)C(=O)c1ccc(-c2ccccc2)cc1 [Example 752, N-{3-[2-({[(4-chlorophenyl)sulfonyl]-2,5-difluoroanilino}methyl)phenoxy]propyl}-N-methyl[1,1′-biphenyl]-4-carboxamide]
IC50 [4]: 0.1 to 0.5 µM

IC50 [1]: > 0.5 µM
Compound: (2E)-3-[2-({[(4-chlorophenyl)sulfonyl]anilino}methyl)phenyl]-2-propenoic acid [Example 1035]

IC50 [6]: 0.1 to 0.5 µM
Compound: C[C@H](C(=O)N[C@H]1CC[C@H](O)CC1)N(c1cc(Cl)ccc1F)S(=O)(=O)c1ccc(Cl)cc1 [Example 1338]

IC50 [4]: 0.1 to 0.5 µM
Compound: N-{3-[2-({[(4-chlorophenyl)sulfonyl]-2,5-difluoroanilino}methyl)phenoxy]propyl}-N-methylbutanamide [Example 638]

IC50 [6]: 0.1 to 0.5 µM
Compound: C[C@H](C(=O)NCC1CC1)C(c1cc(Cl)ccc1F)S(=O)(=O)c1ccc(Cl)cc1 (stereo partly shown) [Example 1303]

IC50 [7]: 0.05 to 0.1 µM
Compound: C[C@H](c1ccccc1CCC(=O)NC1CCCc2ccccc21)N(c1cc(F)ccc1F)S(=O)(=O)c1ccc(Cl)cc1 (stereo partly drawn) [Example 406, 3-[2-((1R)-1-{[(4-chlorophenyl)sulfonyl]-2,5-difluoroanilino}ethyl)phenyl]-N-(1,2,3,4-tetrahydro-1-naphthalenyl)propanamide]

IC50 [3]: > 0.5 µM
Compound: CSc1cccc(N(Cc2ccccc2OCCCN2CCCCC2)S(=O)(=O)c2ccc(Cl)cc2)c1 [Example 952, 4-chloro-N-[3-(methylsulfanyl)phenyl]N-{2-[3-(1-piperidinyl)propoxy]benzyl}benzenesulfonamide hydrochloride]

IC50 [4]: 0.1 to 0.5 µM
Compound: 2,4,6-trichloro-N-{3-[2-(1-{[(4-chlorophenyl)sulfonyl]-2,5-difluoroanilino}ethyl)phenoxy]propyl}-N-methylbenzamide [Example 713]

IC50 [6]: > 0.5 µM
Compound: COc1ccc(CNC(=O)[C@@H](C)N(c2cc(Cl)ccc2F)S(=O)(=O)c2ccc(Cl)cc2)cc1 [Example 1361]

Compound: CC(C)S(=O)(=O)CCC[C@@H](C)N(c1cc(Cl)ccc1CO)S(=O)(=O)c1ccc(Cl)cc1 [Example 1220]
IC50 [8]: ≤ 0.025 µM

Compound: COC(=O)[C@H](CC(C)C)NC(=O)CCCC[C@@H](C)N(c1cc(Cl)ccc1F)S(=O)(=O)c1ccc(Cl)cc1 [Example 1258, (R)-4-Chloro-N-(5-chloro-2-fluorophenyl)-N-[6-[N-(S)-[1-(methoxycarbonyl)-3-methylbutyl]amino]-1-methyl-6-oxohexyl]benzenesulfonamide]
IC50 [8]: ≤ 0.025 µM

IC50 [1]: 0.1 to 0.5 µM
Compound: N-{3-[2-({[(4-chlorophenyl)sulfonyl]-2,5-difluoroanilino}methyl)phenoxy]propyl}-2,4-dimethoxy-N-methylbenzamide [Example 834]

IC50 [3]: > 0.5 µM
Compound: C[C@H](c1ccccc1CCCn1ccnc1)N(c1cc(F)ccc1F)S(=O)(=O)c1ccc(Cl)cc1 [Example 1056, 4-chloro-N-(2,5-difluorophenyl)-N-((1R)-1-{2-[3-(1H-imidazol-1-yl)propyl]phenyl}ethyl)benzenesulfonamide hydrochloride]

IC50 (Homo sapiens, 16 h, transfected H4 cells stably expressing APP, approx. 16 h incubation, read-out: ACTIVITY (IC50, inhibition of amyloid β production)): 0.1 to 0.5 µM
Compound: CC(c1ccccc1OCCCN(C)S(=O)(=O)c1ccc(Cl)cc1)N(c1cc(F)ccc1F)S(=O)(=O)c1ccc(Cl)cc1 (stereo not shown) [Example 794, 4-chloro-N-[1-(2-{3-[[(4-chlorophenyl)sulfonyl](methyl)amino]propoxy}phenyl)ethyl]-N-(2,5-difluorophenyl)benzenesulfonamide]

IC50 [1]: 0.1 to 0.5 µM
Compound: 2-((1R)-1-{[(4-chlorophenyl)sulfonyl]-2,5-difluoroanilino}ethyl)benzyl (1S)-1-phenylethylcarbamate [Example 823]

IC50 [7]: 0.05 to 0.1 µM
Compound: C[C@H](c1ccccc1CCC(=O)Nc1ccccc1)N(c1cc(F)ccc1F)S(=O)(=O)c1ccc(Cl)cc1 [Example 403, 3-[2-((1R)-1-{[(4-chlorophenyl)sulfonyl]-2,5-difluoroanilino}ethyl)phenyl]-N-phenylpropanamide]

IC50 [7]: 0.05 to 0.1 µM
Compound: CC(c1ccccc1OCCCCN(C)C(=O)CSc1ccccc1)N(c1cc(F)ccc1F)S(=O)(=O)c1ccc(Cl)cc1 (stereo not shown) [Example 384, N-{4-[2-(1-{[(4-chlorophenyl)sulfonyl]-2,5-difluoroanilino}ethyl)phenoxy]butyl}-N-methyl-2-(phenylsulfanyl)acetamide]

Compound: C[C@H](CCCN1CCC(CS(C)(=O)=O)CC1)N(c1cc(Cl)ccc1Cl)S(=O)(=O)c1ccc(Cl)cc1 [Example 1157, 4-chloro-N-(2,5-dichlorophenyl)-N-[4-[[4-(methylsulfonyl)methyl]-1-piperidinyl]-1(R)-methylbutyl)benzenesulfonamide]
IC50 [8]: 0.1 to 0.5 µM

Compound: CCN(CCCn1ccnc1)C(=O)OC[C@@H](C)N(c1cc(Cl)ccc1Cl)S(=O)(=O)c1ccc(Cl)cc1 [Example 1247, 4-Chloro-N-(2,5-dichlorophenyl)-N-[2-[[[N′-[3-(1H-imidazol-1-yl)propyl]-N′-ethylamino]carbonyl]oxy]-(R)-1-methylethyl]benzenesulfonamide]
IC50 [8]: ≤ 0.025 µM

IC50 [3]: > 0.5 µM
Compound: O=S(=O)(c1ccc(Cl)cc1)N(Cc1ccccc1OCCCCCN1CCCCC1)c1ccccc1 [Example 976, 4-chloro-N-phenyl-N-(2-{[5-(1-piperidinyl)pentyl]oxy}benzyl)benzenesulfonamide hydrochloride]

IC50 (Table B, transfected H4 cells stably expressing APP, approximately 16 hours incubation, read-out: ACTIVITY (inhibitory concentration IC50, inhibition of amyloid β production)): ≤ 0.025 µM
Compound: Nc1cc(Cl)ccc1COC1CCCCO1 (stereo not shown) [Example 3, 5-Chloro-2-[[(tetrahydro-2H-pyran-2-yl)oxy]methyl]benzenamine]

IC50 [5]: 0.025 to 0.05 µM
Compound: 2-((1R)-1-{[(4-chlorophenyl)sulfonyl]-2,5-difluoroanilino}ethyl)benzyl 1-piperidinecarboxylate [Example 284]

IC50 [6]: > 0.5 µM
Compound: Cc1ccc(CCNC(=O)[C@@H](C)N(c2cc(Cl)ccc2F)S(=O)(=O)c2ccc(Cl)cc2)cc1 [Example 1325]

Compound: C[C@H](CCCCN1CCC(S(C)(=O)=O)CC1)N(c1cc(Cl)ccc1Cl)S(=O)(=O)c1ccc(Cl)cc1 [Example 1123, 4-chloro-N-(2,5-dichlorophenyl)-N-[5-[(4-methylsulfonyl)-1-piperidinyl]-1(R)-methylpentyl]benzenesulfonamide]
IC50 [8]: 0.05 to 0.1 µM
